The test system of one assay is PC-3 cells. Description: MTS cell viability assay. The class given is cell-based. The following applies: PC-3, MTS, 72 hours, 0-250 μM. The method, then:
FIG. 2. (a) Structure of FLM-c2 derivatives D1 (top), D2 (middle) and D3 (bottom) (b) Molecular modelling of compounds D1, D2 and D3. Representation of the molecules are as described in FIG. 1. (c) MTS assay of PC-3 cells treated with FLM-c2, D-1 D3 (0.1-250 μM).
To quantify cell toxicity of FLM-c2, the MTS (3-(4,5-dimethylthiazol-2-yl)-5-(3-carboxymethoxyphenyl)-2-(4-sulfophenyl)-2H-tetrazolium) assay was performed using CellTiter 96@AQueous One Solution Cell Proliferation Assay reagent (Promega, Madison, WI), as per the manufacturer's instructions. PC-3 cells were seeded at 2000 cells per well on a 96 well plate overnight at 37° C. and 5% C02. Cells were then treated with 0-250 μM with each of FLM-c2, D1, D2 and D3, which was incubated for 72 hours at 37° C. and 5% C02. Medium was replaced with 100 μL/well of phenol red-free MEM (Sigma-Aldrich) and 20 μL/well of the MTS reagent was added. After incubation for 3 hours in 37° C. with 5% C02, the absorbance was measured at 490 nm with Spectramax M5e.
A general note: Formazan colour is commonly taken as a measure of viable cells.

A further assay concerns the target T1, EGF-EGFR interaction (Homo sapiens, UniProt P00533).
T1 construct: purchased Perkin-Elmer
Put plainly: EGF-EGFR AlphaLISA assay. The class given is binding. The following applies: in vitro AlphaLISA. As to the method: FIG. 2. […] Representation of the molecules are as described in FIG. 1.
The AlphaLISA EGF/EGFR binding kit (Perkin-Elmer) was used as per the manufacturer's instructions. […] Finally, 5 μL of EGFR acceptor beads were added, and fluorescence imaged on a plate reader.
On the technique in general: Bead proximity is the source of the signal in Alpha formats.

Assay [1] addresses T2, hGIIA interaction with EGFR (Homo sapiens, UniProt P00533).
T2 construct: endogenous in cells; host or cells: PC-3
Put plainly: Co-immunoprecipitation of hGIIA and EGFR in PC-3 cells. Format: cell-based. The following applies: PC-3, hGIIA 2 μg/mL, FLM-c2 100 μM. As to the method:
FIG. 1. (a), Amino acid sequence of human group IIA-secreted phospholipase A2 (hGIIA) predicted to interact with EGF-binding site of EGFR shown in magenta; helices shown as red braids; β strands as green arrows; and loops as blue lines. Sequence from which FLM-c2 is derived shown with orange box. (b), Prostate cancer cell line PC-3 incubated with hGIIA (2 μg/mL) and FLM-c2 (100 μM) for 3 hours before lysing and pulldown with hGIIA antibody followed by detection with EGFR antibody. (c), molecular modelling of EGF (pink ribbon) and (d), FLM-c2 analogue (cyclo-(Phe-Leu-Ser-Phe-Arg)) (stick diagram. Yellow, carbon; blue, nitrogen; red oxygen) binding to EGFR. EGFR is depicted as a surface model (red, basic surfaces; blue, acidic surfaces, yellow; cysteine residues; green, hydrophobic surfaces; white neutral surfaces). (e) PC-3 cells co-transfected with Rab5-mCherry (red), EGFR-GFP (green) and treated with hGIIA/AF647 (purple) as well as c2 at 1 μM and 10 μM for 24 hours. EGF (25 ng/mL) and Lapatinib (5 μM) were used as control treatments. N=3, >5 cells per replicate.
PC-3 cells were seeded in a 6-well plate at 300,000 cells/well and grown overnight at 37° C. and 5% CO2. Cells were then incubated with 2 μg/mL hGIIA with and without FLM-c2 (100 μM) for two hours. After incubation, cells were washed three times with 10 mL ice cold PBS for 2 min. […]

For assay [2], the system named is EGFR, Rab5 and hGIIA localisation. Description: Live cell imaging of EGFR, Rab5 and hGIIA localisation in PC-3 cells. Format: cell-based. The following applies: PC-3, c2 10 μM with hGIIA/AF647, 24 hours.
Description: The effect of c2 on EGFR, Rab5 and hGIIA localisation was also examined in PC-3 cells. PC-3 cells were co-transfected with EGFR-EGFP and Rab5-mCherry before treatment with hGIIA/AF647 and c2 at 0, 1 and 10 μM.
A further assay concerns the target EGFR (Homo sapiens, UniProt P00533). Put plainly: Western blot of EGFR in PC-3 cells. Format: cell-based. The following applies: PC-3, 100 μM, 24 hours. The method, then: FIG. 3. (a) PC-3 cells treated with DMSO (0.5%), FLM-c2 (100 μM), D1-D3 (100 μM) or EGF (50 ng/mL) for 24 h, detected for EGFR and GAPDH. (b) PC-3 cells tagged with EGFR-EGFP and lysotracker treated with DMSO (0.5%) or D3 (100 μM) for 24 h.
FIG. 4. (a) PC-3 cells were treated with D1-D3 (100 μM) for 3, 16, 24 and 48 hours. EGFR and ß-Actin ratio was detected. (b) the EGFR:ß-Actin ratio was plotted after normalising to DMSO control.
PC-3 cells were seeded in a 6 well plate at 200,000 cells/well overnight at 37° C. and 5% C02. Media was removed, cells were washed with PBS and serum free media added 1 hour before treatment with FLM-c2, D1-D3 for 3-48 hours. After treatment, media was removed and cells were washed with ice cold PBS. PBS was removed and cells were scraped into 1 mL of PBS containing 5.3 mM of EDTA and centrifuged at 2500 g for 2 min. PBS was removed and cells were lysed with lysis buffer (PBS, 0.1% NP-40, 0.1% sodium deoxycholate, 150 mM NaCl, 1 mM EDTA, 1 mM dithiothreitol, 1 mM phenylmethylsulfonyl fluoride, and IX protease inhibitor cocktail)^17 and mixed with RM-2L Intelli-mixer for 30 min at 4° C. Lysates were then centrifuged at 12,000 g for 20 min at 4° C. 20 μg of lysate was added to 4 μL of Bolt reducing agent and 10 μL of reducing buffer (both reagents supplied by Thermo Fisher Scientific) for a final volume of 40 μL with PBS. Samples were boiled and run on a gel, transferred to a membrane and blocked for 1 hour in 5% skim milk at 25° C. Membrane was probed with either EGFR antibody #2232, GAPDH antibody #2118 or BS-Actin antibody #4970 (Cell Signalling) at 1:1000 in 5% skim milk/TBST overnight at 4° C. Each membrane was washed three times with 50 mL TBST for 5 mins and then incubated with the relevant secondary α-rabbit IgG-HRP-linked antibody (1:1000), for 1 hour at room temperature. The membrane was washed as described above and imaged with the Licor Odyssey.
(In general: A western blot detects proteins with antibodies after separation by electrophoresis.)

Assay [3] deals with hGIIA-driven eicosanoid production. The following applies: prostate cancer cells; Mann et al. in review; cited from earlier work.

The structures appear in SMILES notation. Square brackets hold non-standard residues; d marks the D form. Peptide text beside a SMILES is read from it. 2Nal = N[C@@H](Cc1ccc2ccccc2c1)C(=O)O

T1 sequence (P00533 25-645 limits assumed): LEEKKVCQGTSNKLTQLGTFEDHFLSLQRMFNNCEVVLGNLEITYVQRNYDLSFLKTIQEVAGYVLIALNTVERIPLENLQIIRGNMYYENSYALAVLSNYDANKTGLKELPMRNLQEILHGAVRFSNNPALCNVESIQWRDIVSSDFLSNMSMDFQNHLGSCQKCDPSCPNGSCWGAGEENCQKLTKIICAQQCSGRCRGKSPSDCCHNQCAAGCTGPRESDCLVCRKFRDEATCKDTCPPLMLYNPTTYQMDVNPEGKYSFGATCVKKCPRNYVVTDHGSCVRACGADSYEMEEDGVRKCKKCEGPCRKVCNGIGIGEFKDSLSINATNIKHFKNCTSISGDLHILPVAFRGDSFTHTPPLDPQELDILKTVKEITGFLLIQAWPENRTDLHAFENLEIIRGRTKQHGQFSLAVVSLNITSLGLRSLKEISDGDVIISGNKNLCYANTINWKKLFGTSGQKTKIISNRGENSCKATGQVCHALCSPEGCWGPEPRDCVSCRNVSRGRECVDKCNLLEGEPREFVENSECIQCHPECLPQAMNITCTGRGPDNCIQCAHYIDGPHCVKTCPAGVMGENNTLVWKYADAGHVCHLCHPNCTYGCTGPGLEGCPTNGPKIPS
T2 sequence (P00533 25-1210): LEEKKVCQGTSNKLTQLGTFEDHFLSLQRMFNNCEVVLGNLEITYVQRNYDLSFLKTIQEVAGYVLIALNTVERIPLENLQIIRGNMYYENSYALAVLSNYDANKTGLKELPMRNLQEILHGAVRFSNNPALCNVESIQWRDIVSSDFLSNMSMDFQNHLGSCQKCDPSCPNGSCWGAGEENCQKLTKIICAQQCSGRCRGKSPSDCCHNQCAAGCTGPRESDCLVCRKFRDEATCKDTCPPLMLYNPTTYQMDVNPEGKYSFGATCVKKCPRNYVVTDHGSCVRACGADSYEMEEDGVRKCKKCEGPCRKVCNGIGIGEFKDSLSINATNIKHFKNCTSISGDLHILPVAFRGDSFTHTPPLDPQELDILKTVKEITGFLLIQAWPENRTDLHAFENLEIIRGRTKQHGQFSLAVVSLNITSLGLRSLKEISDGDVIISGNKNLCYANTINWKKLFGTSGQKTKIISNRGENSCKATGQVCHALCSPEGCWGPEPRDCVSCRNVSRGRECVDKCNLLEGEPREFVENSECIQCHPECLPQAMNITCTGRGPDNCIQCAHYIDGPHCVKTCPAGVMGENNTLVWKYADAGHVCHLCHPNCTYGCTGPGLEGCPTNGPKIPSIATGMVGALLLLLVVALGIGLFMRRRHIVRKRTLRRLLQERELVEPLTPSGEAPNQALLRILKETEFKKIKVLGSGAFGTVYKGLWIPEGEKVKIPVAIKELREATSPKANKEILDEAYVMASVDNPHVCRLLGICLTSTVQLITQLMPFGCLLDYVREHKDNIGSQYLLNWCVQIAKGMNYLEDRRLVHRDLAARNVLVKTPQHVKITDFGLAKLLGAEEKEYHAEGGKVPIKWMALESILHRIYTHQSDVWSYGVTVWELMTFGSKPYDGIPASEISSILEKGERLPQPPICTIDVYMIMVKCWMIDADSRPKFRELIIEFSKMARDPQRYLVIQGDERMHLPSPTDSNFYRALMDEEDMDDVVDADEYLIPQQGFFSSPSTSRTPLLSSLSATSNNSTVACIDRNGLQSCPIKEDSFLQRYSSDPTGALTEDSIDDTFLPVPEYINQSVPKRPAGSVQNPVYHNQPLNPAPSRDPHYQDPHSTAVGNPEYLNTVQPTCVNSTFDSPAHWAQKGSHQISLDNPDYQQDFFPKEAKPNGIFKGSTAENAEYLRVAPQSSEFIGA
Sequence of EGFR (P00533 25-1210): as above

The molecule `CC(C)C[C@@H]1NC(=O)[C@H](Cc2ccc3ccccc3c2)NC(=O)[C@H](CCCNC(=N)N)NC(=O)[C@H](Cc2ccc3ccccc3c2)NC(=O)[C@H](CO)NC1=O` [FLM-c2, cyclo-((2-Nal)-Leu-Ser-(2-Nal)-Arg)] (cyclo([2Nal]LS[2Nal]R)) yielded an IC50 in the assay with PC-3 cells of 211 µM. The “potency order in inhibiting the EGF/EGFR interaction” value at EGF-EGFR interaction was “FLM-c2>D1>D2>D3”. The “inhibition of the EGF/EGFR interaction” value against EGF-EGFR interaction (0.01-200 μM) is on record as “inhibited the EGF/EGFR interaction at high concentrations”. The “inhibition of hGIIA-EGFR interaction (EGFR signal after pulldown with hGIIA antibody)” value in assay [1] is “able to inhibit this interaction”. Further, in assay [2], the “effect on EGFR, Rab5 and hGIIA localisation” value was “increased hGIIA/AF647 and Rab5-mCherry punctate size, as well as circularisation of EGFR-GFP expression”. Besides, the “EGFR degradation by western blot” value on EGFR is given as “did not”. Besides, the “inhibition of hGIIA-driven eicosanoid production” value in assay [3] is on record as “known to inhibit hGIIA-driven eicosanoid production”.

Usually IC50 stands for the concentration that gives 50% inhibition.
